Read-outs that look alike come from different tables or passages of the source.
Tests used:
[1] = Solubility in solvents, antisolvents and liquid fill solvents; format: physicochemical; conditions: organic solvent or mixture
Description: In one example, antisolvents include pentane, hexane, cyclohexane, heptane, ethyl acetate, iso-propyl acetate, methyl t-butyl ether (MTBE) and methyl iso-butyl ketone.
In one example, solvents include water, alcohols such as methanol, ethanol, isopropanol, 2-butanol, t-butanol and 2-methoxy ethanol, polar ethers such as tetrahydrofuran and 2-methyltetrahydrofuran, toluene, chloroform, dichloromethane, 1,2-dichloroethane and acetone.

[2] = Critical micelle concentration in propylene glycol caprylate (Capryol 90); format: physicochemical; conditions: in propylene glycol caprylate (e.g., Capryol 90)
Method: Such high doses are generally unachievable with active pharmaceutical ingredients in the lipid like liquid fill solvent systems. […] The critical micelle concentration for GDC-0068 in propylene glycol caprylate (e.g., Capryol 90™) was determined to be 0.945 g/g.

[3] = forms isolated in Example 14 of U.S. Pat. No. 8,063,050; cited from earlier work
[4] = Hygroscopicity / water sorption analysis; format: physicochemical; conditions: continuous water sorption profile at 25° C. from 0-90% RH
[5] = Variable temperature XRPD (thermal stability of the solid form); format: physicochemical; conditions: heating, XRPD as a function of temperature
Method: Heating the product of Example 1 leads to loss in structure (diffracted peaks start to disappear in the 100-160° C. range) and the solid-state form becomes amorphous.
At temperatures ≧80° C., there is substantial loss of crystallinity. In both samples, they appear to be X-ray amorphous at 90° C. and above (due to melting of the lattice solvent and dissolution of the solid phase in it as confirmed by hot stage microscopy).

[6] = XRPD after exposure to water vapor (relative humidity); format: physicochemical; conditions: room temperature, different RH conditions, 5-7 days

Structure (SMILES): CC(C)NC[C@@H](C(=O)N1CCN(c2ncnc3c2[C@H](C)C[C@H]3O)CC1)c1ccc(Cl)cc1.Cl [compound of formula I, (S)-2-(4-chlorophenyl)-1-(4-((5R,7R)-7-hydroxy-5-methyl-6,7-dihydro-5H-cyclopenta[d]pyrimidin-4-yl)piperazin-1-yl)-3-(isopropylamino)propan-1-one monohydrochloride]
- solubility ([1]; antisolvents (organic liquids), pentane, hexane, cyclohexane, heptane, ethyl acetate, iso-propyl acetate, MTBE, methyl iso-butyl ketone, read-out: solubility in antisolvents): < 20 mg/mL
- solubility ([1]; solvents (water and organic liquids), water, methanol, ethanol, isopropanol, 2-butanol, t-butanol, 2-methoxy ethanol, THF, 2-methyltetrahydrofuran, toluene, chloroform, dichloromethane, 1,2-dichloroethane, acetone, read-out: solubility in solvents): > 20 mg/mL

Structure (SMILES): CC(C)NC[C@@H](C(=O)N1CCN(c2ncnc3c2[C@H](C)C[C@H]3O)CC1)c1ccc(Cl)cc1 [GDC-0068, (S)-2-(4-chlorophenyl)-1-(4-((5R,7R)-7-hydroxy-5-methyl-6,7-dihydro-5H-cyclopenta[d]pyrimidin-4-yl)piperazin-1-yl)-3-(isopropylamino)propan-1-one]
- critical micelle concentration [2]: 0.945 g/g
- hygroscopicity [3]: hygroscopic

Structure (SMILES): CC(C)NC[C@@H](C(=O)N1CCN(c2ncnc3c2[C@H](C)C[C@H]3O)CC1)c1ccc(Cl)cc1.Cl [Example 1, (S)-2-(4-chlorophenyl)-1-(4-((5R,7R)-7-hydroxy-5-methyl-6,7-dihydro-5H-cyclopenta[d]pyrimidin-4-yl)piperazin-1-yl)-3-(isopropylamino)propan-1-one monohydrochloride]
- deliquescence point [4]: ~75 % RH
- temperature range in which diffracted peaks start to disappear (loss in structure, becomes amorphous) [5]: 100-160 °C
- effect of water vapor exposure on crystallinity [6]: loses crystallinity

Reference: US9505725B2, “Crystalline and mesomorphous forms of an AKT inhibiting pyrimidinyl-cyclopentane compound, compositions and methods thereof” (priority 2012, dated 2016)
